From patent US20110305637A1, “RADIOLABELLED PDE10 LIGANDS” (Janssen Pharmaceutica N.V., priority 2009, published 2011)

Assay: Plasma metabolite analysis
Format: in vivo
Details: rat plasma, 60 min p.i.
Procedure: The metabolic stability of [^18F]B-1 was studied in normal rats by determination of the relative amounts of parent tracer and metabolites in the blood at 1 hour p.i. of the tracer. After intravenous (i.v.) administration of about 19 MBq [^18F]B-1 via tail vein under anesthesia (2.5% Isoflurane in O2 at 1 L/min flow rate), rats were sacrificed by decapitation at 60 min p.i. (n=2). Blood was collected in heparin containing tubes (4.5 mL LH PST tubes; BD vacutainer, BD, Franklin Lakes, N.J., USA) and immediately centrifuged for 10 min at 3000 rpm to separate the plasma. […] After passing through UV detector (254 nm), the HPLC eluate was collected as 1-mL fractions using an automatic fraction collector and the radioactivity of these fractions was measured in the γ-counter.
The metabolic stability was assessed in plasma collected from normal rats (n=2) 60 min post injection of [^18F]B-1 using RP-HPLC. […]
The metabolic stability of [^18F]B-2 was studied in normal rats by determination of the relative amounts of parent tracer and metabolites in the blood at 1 hour p.i. of the tracer. […] After passing through UV detector (254 nm), the HPLC eluate was collected as 1-mL fractions using an automatic fraction collector and the radioactivity of these fractions was measured in the γ-counter. […]

With `[18F]CCCn1cc(-c2ccncc2)c(-c2ccc(OCc3ccc4ccccc4n3)cc2)n1` [[^18F]B-1] the “Relative percentage of apolar metabolite(s)/components” value was 1.6 ± 1.5%.
